{
  "source": "patent US20050282833A1",
  "about": "“Pharmacological treatment of psoriasis” (priority 2002, published 2005)",
  "key": {"[1]": {"test_system": "patient with a history of plaque psoriasis", "assay": "Case study 1: valacyclovir treatment of a plaque psoriasis patient", "format": "in vivo, human", "experimental": "A patient with a history of plaque psoriasis over the last several years was diagnosed by their physician. Patient was treated with valacyclovir tablets at 500 mg taken 2 times a day for 20 days."}, "[2]": {"test_system": "patient with a history of reoccurring plaque psoriasis", "assay": "Case study 2: Valtrex (valacyclovir) treatment of a plaque psoriasis patient", "format": "in vivo, human", "settings": "tablets 500 mg 3 times a day for several weeks, then 1.0 gram 3 times a day for several weeks; person", "experimental": "A person with a history of reoccurring plaque psoriasis over the last 30 years, as diagnosed by their physician, began treatment with […] (valacyclovir) tablets at 500 mg taken 3 times a day for several weeks. Dosage of […] increased to 1.0 gram taken 3 times a day for several weeks. Both the psoriatic lesions and other symptoms associated with psoriasis improved and cleared to 75-80% recovery."}, "patients with psoriasis [3]": {"test_system": "patients with psoriasis", "settings": "10 week trial, cited from earlier work"}, "[4]": {"test_system": "patients with psoriatic lesions / psoriatic arthritis", "settings": "cited from earlier work"}, "pustular psoriasis": {"test_system": "pustular psoriasis", "settings": "in vivo; cited from earlier work"}, "cytomegalovirus (CMV)": {"test_system": "cytomegalovirus (CMV)", "settings": "ranking among herpes viruses; cited from earlier work"}, "[5]": {"test_system": "human herpesvirus (HHV-6)", "settings": "ranking among herpes viruses; cited from earlier work"}, "patients with psoriasis [6]": {"test_system": "patients with psoriasis", "settings": "cited from earlier work"}, "[7]": {"test_system": "psoriatic lesions of patients", "settings": "once daily over 24 days; cited from earlier work"}, "[8]": {"test_system": "patients with plaque psoriasis", "settings": "after 8 weeks of therapy; cited from earlier work"}},
  "data": [
    {"molecule": "CC(C)[C@H](N)C(=O)OCCOCn1cnc2c(=O)[nH]c(N)nc21", "note": "[valacyclovir]", "values": [
      {"measurement": "reoccurrence of the psoriatic symptoms", "setting": "[1]; since treatment ended", "result": "No reoccurrence"},
      {"measurement": "recovery from the psoriasis", "setting": "[1]; tablets 500 mg 2 times a day for 20 days, person, plaque psoriasis", "result": "complete recovery"},
      {"measurement": "recovery (psoriatic lesions and other symptoms improved and cleared)", "setting": "[2]", "result": "75-80%"}
    ]},
    {"molecule": "hu1124: anti-CD11a-antibody", "values": [
      {"measurement": "patients with headaches, chills, and fever", "setting": "patients with psoriasis [3]", "result": "over half of the patients"},
      {"measurement": "improvement of psoriasis", "setting": "patients with psoriasis [3]; high dose group", "result": "only moderate improvement"}
    ]},
    {"molecule": "etanercept", "values": [
      {"measurement": "mean improvement of psoriatic lesions", "setting": "[4]; 12 weeks", "result": 46, "unit": "%"},
      {"measurement": "response to treatment in patients diagnosed with psoriatic arthritis", "setting": "[4]; psoriatic arthritis", "result": 73, "unit": "%"}
    ]},
    {"molecule": "infliximab: monoclonal antibody directed against TNF-α", "values": [
      {"measurement": "treating and sustaining clearing of pustular psoriasis", "setting": "pustular psoriasis", "result": "highly effective"}
    ]},
    {"molecule": "Nc1nc2c(ncn2COCCO)c(=O)[nH]1", "note": "[acyclovir]", "values": [
      {"measurement": "activity against virus", "setting": "cytomegalovirus (CMV)", "result": "least active"},
      {"measurement": "activity against virus", "setting": "[5]", "result": "least active"}
    ]},
    {"molecule": "basiliximab", "values": [
      {"measurement": "long-lasting clearing of lesions after last treatment", "setting": "patients with psoriasis [6]; one patient with acute exacerbating psoriasis", "result": "more than 10 weeks"},
      {"measurement": "improvement of lesions", "setting": "patients with psoriasis [6]; second patient with stable chronic plaque psoriasis", "result": "did not show improvement"}
    ]},
    {"molecule": "IL-10: cytokine, inhibitor of Th1-type cell priming and Th2-type mediator (protein, UniProt P22301 19-178, looked up) Interleukin-10: SPGQGTQSENSCTHFPGNLPNMLRDLRDAFSRVKTFFQMKDQLDNLLLKESLLEDFKGYLGCQALSEMIQFYLEEVMPQAENQDPDIKAHVNSLGENLKTLRLRLRRCHRFLPCENKSKAVEQVKNAFNKLQEKGIYKAMSEFDIFINYIEAYMTMKIRN", "values": [
      {"measurement": "improvement to psoriatic lesions", "setting": "[7]", "result": "some improvement"}
    ]},
    {"molecule": "daclizumab: monoclonal antibody masking the cellular receptor CD25 for IL-2 (antibody, chains of the INN, looked up, V domains shown) VH: QVQLVQSGAEVKKPGSSVKVSCKASGYTFTSYRMHWVRQAPGQGLEWIGYINPSTGYTEYNQKFKDKATITADESTNTAYMELSSLRSEDTAVYYCARGGGVFDYWGQGTLVTVSS VL: DIQMTQSPSTLSASVGDRVTITCSASSSISYMHWYQQKPGKAPKLLIYTTSNLASGVPARFSGSGSGTEFTLTISSLQPDDFATYYCHQRSTYPLTFGQGTKVEVK", "values": [
      {"measurement": "patients experiencing a reduction in severity of plaque psoriasis", "setting": "[8]", "result": 30, "unit": "%"}
    ]}
  ]
}
